Data published in patent publication US10221163B2 (priority 2015, dated 2019).
Read-outs that look alike come from different tables or passages of the source.

How the values were obtained:
VIM-1 = VIM-1 (Pseudomonas aeruginosa (strain ATCC 15692 / DSM 22644 / CIP 104116 / JCM 14847 / LMG 12228 / 1C / PRS 101 / PAO1), UniProt A0A0F7KYQ8); experiment: biochemical; details: CCF2-FA substrate, 30 pM enzyme, 2 hours at 25° C.
How it was run: (§1)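 Test compound, enzyme and the FRET cephalosporin substrate CCF2-FA are incubated together for 2 hours at 25° C. Cleavage is followed by fluorescence, and IC50 values are derived from semi-logarithmic inhibition curves fitted with a 4-parameter model.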

[1] = system: Klebsiella pneumoniae expressing VIM-1 (IHMA599644); format: cell-based; details: VIM-1 strain IHMA599644, with imipenem 1 μg/ml, 95% inhibition of growth
How it was run: (§2)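 Clinical isolates (E. coli NDM-1, S. marcescens IMP-1, K. pneumoniae VIM-1) were diluted 1:100 from saline suspension into 1.1×CAMHB and exposed to test compound with imipenem at 1 μg/ml. Plates were incubated at 35° C for 22 hours to 24 hours, and growth was read by absorbance.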

[2] = system: Serratia marcescens expressing IMP-1 (CL5741); format: cell-based; details: IMP-1 strain CL5741, with imipenem 1 μg/ml, 95% inhibition of growth
How it was run: as §2

[3] = system: Escherichia coli expressing NDM-1 (CLB30005, CLB30016); format: cell-based; details: NDM-1 strain, with imipenem 1 μg/ml, 95% inhibition of growth
How it was run: as §2

[4] = system: Pseudomonas aeruginosa efflux− (MB9799), IMP-1; format: cell-based; details: concentration restoring susceptibility to imipenem at 2 μg/mL in the presence of a class A, C, D serine β-lactamase inhibitor closely related to relebactam
How it was run: (§3)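 PAO1 pair, broth microdilution; fixed β-lactam (imipenem/ceftazidime) at ~CLSI breakpoint + fixed class A/C BLI for AmpC; serial MBLi titration; endpoint = MBLi conc. restoring susceptibility; MB9798:MB9799 ratio = efflux liability.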

NDM-1 = NDM-1 (Klebsiella pneumoniae, UniProt C7C422); experiment: biochemical; format: biochemical; details: fluorescence assay, CCF2-FA substrate, 1 pM enzyme, 2 hours at 25° C.; read-out: NDM-1 IC50
How it was run: as §1

IMP-1 = IMP-1 (Serratia marcescens, UniProt P52699); experiment: biochemical; format: biochemical; details: fluorescence assay, CCF2-FA substrate, 2 pM enzyme, 2 hours at 25° C.; read-out: IMP-1 IC50
How it was run: as §1

[5] = system: Pseudomonas aeruginosa MB9798 vs MB9799; details: ratio MITC95 PA_9798/MITC95 PA_9799
How it was run: as §3

[6] = system: Pseudomonas aeruginosa efflux+ (MB9798), IMP-1; format: cell-based; details: concentration restoring susceptibility to imipenem at 2 μg/mL in the presence of a class A, C, D serine β-lactamase inhibitor closely related to relebactam
How it was run: as §3

[7] = fluorescence assay, read-out: VIM-1 IC50

Chain of IMP-1 (P52699 whole entry, looked up, species assumed): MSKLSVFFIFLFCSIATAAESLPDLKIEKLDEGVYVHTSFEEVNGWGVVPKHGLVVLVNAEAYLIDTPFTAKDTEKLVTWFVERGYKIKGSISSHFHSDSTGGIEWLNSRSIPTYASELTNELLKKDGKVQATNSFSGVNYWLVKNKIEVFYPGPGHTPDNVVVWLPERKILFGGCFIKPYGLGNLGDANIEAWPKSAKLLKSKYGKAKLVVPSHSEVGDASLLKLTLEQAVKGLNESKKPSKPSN
Chain of NDM-1 (C7C422 whole entry, looked up, species assumed): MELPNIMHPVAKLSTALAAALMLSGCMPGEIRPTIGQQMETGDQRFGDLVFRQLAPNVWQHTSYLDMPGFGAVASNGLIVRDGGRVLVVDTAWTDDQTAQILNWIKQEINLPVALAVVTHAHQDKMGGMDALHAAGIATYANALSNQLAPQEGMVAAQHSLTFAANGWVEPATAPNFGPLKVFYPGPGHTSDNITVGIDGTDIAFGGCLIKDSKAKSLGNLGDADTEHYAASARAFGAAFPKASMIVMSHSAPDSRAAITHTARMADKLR

SMILES	IC50 (VIM-1; VIM-1 IC50, fluorescence assay) [nM]	Klebsiella pneumoniae MITC95 [1] [µM]	Serratia marcescens MITC95 [2] [µM]	Escherichia coli MITC95 [3] [µM]	P. aeruginosa expressing IMP-1, efflux − (MB9799) MITC95 [4] [µM]	IC50 (NDM-1) [nM]	IC50 (IMP-1) [nM]	Efflux ratio [5]	P. aeruginosa expressing IMP-1, efflux + (MB9798) MITC95 [6] [µM]	IC50 (VIM-1; [7]) [nM]
N[C@@H]1C=C(c2ccc(S(=O)(=O)N[C@@H]3CCNC3)c(S(N)(=O)=O)c2-c2nn[nH]n2)CCC1 [Example 340, (S)-5′-amino-N4-((R)-pyrrolidin-3-yl)-2-(2H-tetrazol-5-yl)-2′,3′,4′,5′-tetrahydro-[1,1′-biphenyl]-3,4-disulfonamide]	2.89	0.7813	1.563	0.3906	1.563	6.29	46.7	4.00	6.25	
NCCCNC(=O)c1cccc(-c2ccc(S(=O)(=O)NCCN)c(S(N)(=O)=O)c2-c2nn[nH]n2)c1 [Example 341, 4′-(N-(2-aminoethyl)sulfamoyl)-N-(3-aminopropyl)-3′-sulfamoyl-2′-(2H-tetrazol-5-yl)-[1,1′-biphenyl]-3-carboxamide]		3.125	1.563	0.7813	0.7813	1.71	4.13	2.00	1.563	0.474
NCCNS(=O)(=O)c1ccc(C2CCC[C@H](N)C2)c(-c2nn[nH]n2)c1S(N)(=O)=O (stereo partly drawn) [Example 342, 4-((3S)-3-aminocyclohexyl)-N1-(2-aminoethyl)-3-(2H-tetrazol-5-yl)benzene-1,2-disulfonamide]	5.31	1.563	3.125	1.563	6.25	32.7	88.7	4.00	25	
NCCNS(=O)(=O)c1ccc(-c2cccc3[nH]c(CN)nc23)c(-c2nn[nH]n2)c1S(N)(=O)=O [Example 343]		0.7813	0.7813	0.7813	0.7813	0.195	1.37	1.00	0.7813	0.207
NCCNS(=O)(=O)c1ccc(-c2cccc3sc(CN)nc23)c(-c2nn[nH]n2)c1S(N)(=O)=O [Example 345, N^1-(2-aminoethyl)-4-(2-(aminomethyl)benzo[d]thiazol-4-yl)-3-(2H -tetrazol-5-yl)benzene-1,2-disulfonamide]		0.7813	0.7813	0.5859	0.7813	0.193	0.676	1.00	0.7813	0.129
NCCNS(=O)(=O)c1ccc(-c2cccc(C(=O)NC[C@H](O)CN)c2)c(-c2nn[nH]n2)c1S(N)(=O)=O [Example 346]	0.467	1.563	1.563	1.563	0.7813	1.49	3.65	2.00	1.563	
NCCNS(=O)(=O)c1ccc(-c2ccc3ncn(CCN)c3c2)c(-c2nn[nH]n2)c1S(N)(=O)=O [Example 348, N^1-(2-aminoethyl)-4-(1-(2-aminoethyl)-1H-benzo[d]imidazol-6-yl)-3-(2H-tetrazol-5-yl)benzene-1,2-disulfonamide]		1.563	1.563	1.563	0.7813	1.47	3.33	4.00	3.125	0.536
NCCNS(=O)(=O)c1ccc(-c2cccc(NC[C@@H](N)CO)c2)c(-c2nn[nH]n2)c1S(N)(=O)=O [Example 349, (R)-3′-((2-amino-3-hydroxypropyl)amino)-N4-(2-aminoethyl)-2-(2H-tetrazol-5-yl)-[1,1′-biphenyl]-3,4-disulfonamide]		1.563	1.563	1.563	0.7813	1.62	5.65	2.00	1.563	0.433
NCCNS(=O)(=O)c1ccc(-c2cccc(NC[C@H](N)CO)c2)c(-c2nn[nH]n2)c1S(N)(=O)=O [Example 350, (S)-3′-((2-amino-3-hydroxypropyl)amino)-N4-(2-aminoethyl)-2-(2H-tetrazol-5-yl)-[1,1′-biphenyl]-3,4-disulfonamide]		0.7813	0.7813	0.7813	0.7813	1.72	4.4	1.00	0.7813	0.412
NCCNS(=O)(=O)c1ccc(-c2cccc(NC[C@H](O)CN)c2)c(-c2nn[nH]n2)c1S(N)(=O)=O [Example 351, (R)-3′-((3-amino-2-hydroxypropyl)amino)-N4-(2-aminoethyl)-2-(2H-tetrazol-5-yl)-[1,1′-biphenyl]-3,4-disulfonamide]	0.453	1.563	1.563	0.7813	0.7813	1.36	3.55	2.00	1.563	
NCCNS(=O)(=O)c1ccc(-c2cccc(NC[C@@H](O)CN)c2)c(-c2nn[nH]n2)c1S(N)(=O)=O [Example 352, (S)-3′-((3-amino-2-hydroxypropyl)amino)N4-(2-aminoethyl)-2-(2H-tetrazol-5-yl)-[1,1′-biphenyl]-3,4-disulfonamide]	0.379	1.563	1.563	0.7813	0.7813	1.41	4.39	2.00	1.563	
NCCNS(=O)(=O)c1ccc(-c2cccc(-c3c[nH]c(N)n3)c2)c(-c2nn[nH]n2)c1S(N)(=O)=O [Example 353, 3′-(2-amino-1H-imidazol-4-yl)-N4-(2-aminoethyl)-2-(2H-tetrazol-5-yl)-[1,1′-biphenyl]-3,4-disulfonamide]		1.563	0.7813	0.3906	0.7813	0.259	1.15	2.00	1.563	0.571
NCCNS(=O)(=O)c1ccc(-c2cccc(SCC(N)CO)c2)c(-c2nn[nH]n2)c1S(N)(=O)=O (stereo not drawn) [Example 354, 3′-((2-amino-3-hydroxypropyl)thio)-N4-(2-aminoethyl)-2-(2H-tetrazol-5-yl)-[1,1′-biphenyl]-3,4-disulfonamide]		0.7813	1.563	0.3906	0.3906	0.817	0.453	4.00	1.563	0.108
